Reference: US5869658A, “Photochromic indeno-fused naptho[2,1-b]pyrans” (PPG Industries, Inc., priority 1997, dated 1999)

How the values were obtained:
[1] = Photochromic response of test squares on an optical bench (ΔOD/Min, ΔOD at saturation, bleach rate); type: physicochemical; conditions: for ΔOD @ saturation: UV exposure continued for 20 minutes; for ΔOD @ saturation / ΔOD/MIN sensitivity: 75° F., 1.5×10^-3 molal in polymer; for ΔOD/MIN sensitivity: first five seconds of UV exposure, expressed per minute; for Bleach T 1/2: time to one half the highest absorbance at room temperature (75° F.) after removal of activating light
Method: (§1) Testing was done with the photochromic compounds described in Examples 1-5 and 7-9 in the following manner. A quantity of photochromic compound calculated to yield a 1.5×10^-3 molal solution was added to a flask containing 50 grams of a monomer blend of 4 parts ethoxylated bisphenol A dimethacrylate (BPA 2EO DMA), 1 part poly(ethylene glycol) 600 dimethacrylate, and 0.033 weight percent 2,2'-azobis(2-methyl propionitrile) (AIBN). The photochromic compound was dissolved into the monomer blend by stirring and gentle heating. After a clear solution was obtained, it was poured into a flat sheet mold having the interior dimensions of 2.2 mm×6 inches (15.24 cm)×6 inches (15.24 cm). The mold was sealed and placed in a horizontal air flow, programmable oven programmed to increase the temperature from 40° C. to 95° C. over a 5 hour interval, hold the temperature at 95° C. for 3 hours and then lower it to 60° C. for at least 2 hours. After the mold was opened, the polymer sheet was cut using a diamond blade saw into 2 inch (5.1 centimeters) test squares.
The photochromic test squares prepared in Part A were tested for photochromic response on an optical bench. Prior to testing on the optical bench, the photochromic test squares were exposed to 365 nanometer ultraviolet light for about 15 minutes to activate the photochromic compounds and then placed in a 76° C. oven for about 15 minutes to bleach or inactivate the photochromic compounds. The test squares were then cooled to room temperature, exposed to fluorescent room lighting for at least 2 hours and then kept covered for at least 2 hours prior to testing on an optical bench maintained at 75° F. (23.90° C.). The bench was fitted with a 150 watt Xenon arc lamp, a remote controlled shutter, a copper sulfate bath acting as a heat sink for the arc lamp, a Schott WG-320 nm cut-off filter which removes short wavelength radiation; neutral density filter(s) and a sample holder in which the square to be tested was inserted. A collimated beam of light from a tungsten lamp was passed through the square at a small angle (approximately 30°) normal to the square. After passing through the square, the light from the tungsten lamp was directed to a detector through Spectral Energy Corp. GM-200 monochromator set at the previously determined visible lambda max of the photochromic compound being measured. The output signals from the detector were processed by a radiometer.
Change in optical density (ΔOD) was determined by inserting a test square in the bleached state into the sample holder, adjusting the transmittance scale to 100% opening the shutter from the Xenon lamp to provide ultraviolet radiation to change the test square from the bleached state to an activated (i.e., darkened) state, measuring the transmittance in the activated state, and calculating the change in optical density according to the formula: ΔOD=log(100/%Ta), where %Ta is the percent transmittance in the activated state and the logarithm is to the base 10.
The Δ OD/Min, which represents the sensitivity of the photochromic compound's response to UV light, was measured over the first five (5) seconds of UV exposure, then expressed on a per minute basis. The saturation optical density (Δ OD@ Sat) was taken under identical conditions as the Δ OD/Min, except UV exposure was continued for 20 minutes. The lambda max (Vis) is the wavelength in the visible spectrum at which the maximum absorption of the activated (colored) form of the photochromic compound in a test square occurs. The lambda max (Vis) wavelength was determined by testing the photochromic test square polymerizates of Part A in a Varian Cary 3 UV-Visible spectrophotometer. The lambda (λ) max (UV) is the wavelength in the ultraviolet range closest to the visible spectrum at which the absorption of the photochromic compound occurs. This absorption was also determined with the same spectrophotometer. […]

[2] = Lambda max of photochromic test squares by UV-Visible spectrophotometer; type: physicochemical; parameters: unit not given here; conditions: Varian Cary 3; for (λ) max (VIS): activated (colored) form in polymer test square, visible spectrum wavelength of maximum absorption; for (λ) max (UV): photochromic compound in polymer test square, ultraviolet wavelength closest to the visible spectrum
Method: as §1
The Δ OD/Min, which represents the sensitivity of the photochromic compound's response to UV light, was measured over the first five (5) seconds of UV exposure, then expressed on a per minute basis. The saturation optical density (Δ OD@ Sat) was taken under identical conditions as the Δ OD/Min, except UV exposure was continued for 20 minutes. The lambda max (Vis) is the wavelength in the visible spectrum at which the maximum absorption of the activated (colored) form of the photochromic compound in a test square occurs. The lambda max (Vis) wavelength was determined by testing the photochromic test square polymerizates of Part A in a Varian Cary 3 UV-Visible spectrophotometer. The lambda (λ) max (UV) is the wavelength in the ultraviolet range closest to the visible spectrum at which the absorption of the photochromic compound occurs. This absorption was also determined with the same spectrophotometer. The bleach rate (T 1/2) is the time interval in seconds for the absorbance of the activated form of the photochromic compound in the test squares to reach one half the highest absorbance at room temperature (75° F., 23.90° C.) after removal of the source of activating light.

For `COc1cc2c3c(c4c(c2cc1OC)-c1ccccc1C4(C)C)OC(c1ccccc1)(c1ccccc1)C=C3` [Example 5, 6,7-dimethoxy-2,2-diphenyl-13,13-dimethyl-2,13-dihydro-indeno[1',2':4,3]naphtho[2,1-b]pyran], the “ΔOD @ saturation” value [1] was 0.37, the ΔOD/MIN sensitivity [1] was 0.39 ΔOD/MIN and the “Bleach T 1/2” value [1] was 58 s. For the same molecule, the “(λ) max (VIS)” value [2] was 446 and the “(λ) max (UV)” value [2] was 358.
With `COc1cc2c3c(c4c(c2cc1OC)-c1ccccc1C4O)OC(c1ccccc1)(c1ccccc1)C=C3` (stereo not drawn) [Example 9, 6,7-dimethoxy-2,2-diphenyl-13-hydroxy-2,13-dihydro-indeno[1',2':4,3]naphtho[2,l-b]pyran] the “ΔOD @ saturation” value [1] was 0.17, the ΔOD/MIN sensitivity [1] was 0.28 ΔOD/MIN and the “Bleach T 1/2” value [1] was 31 s. For the same molecule, the “(λ) max (VIS)” value [2] was 469 and the “(λ) max (UV)” value [2] was 359.
For `COc1cc2c3c(c4c(c2cc1OC)-c1ccccc1C4)OC(c1ccccc1)(c1ccccc1)C=C3` [Example 2, 6,7-dimethoxy-2,2-diphenyl-2,13-dihydro-indeno[1'2':4,3]naphtho[2,1-b]pyran], the “ΔOD @ saturation” value [1] was 0.44, the ΔOD/MIN sensitivity [1] was 0.48 ΔOD/MIN and the “Bleach T 1/2” value [1] was 51 s. For the same molecule, the “(λ) max (VIS)” value [2] was 443 and the “(λ) max (UV)” value [2] was 387.
With `COc1cc2c3c(c4c(c2cc1OC)-c1ccccc1C4C)OC(c1ccccc1)(c1ccccc1)C=C3` (stereo not shown) [Example 4, 6,7-dimethoxy-2,2-diphenyl-13-methyl-2,13-dihydro-indeno[1',2':4,3]naphtho[2,1-b]pyran] the “ΔOD @ saturation” value [1] was 0.38, the ΔOD/MIN sensitivity [1] was 0.43 ΔOD/MIN and the “Bleach T 1/2” value [1] was 62 s. For the same molecule, the “(λ) max (VIS)” value [2] was 442 and the “(λ) max (UV)” value [2] was 356.
With `CCCCC1(O)c2ccccc2-c2c1c1c(c3cc(OC)c(OC)cc23)C=CC(c2ccccc2)(c2ccccc2)O1` (stereo not shown) [Example 7, 6,7-dimethoxy-2,2-diphenyl-13-hydroxy-13-butyl-2,13-dihydro-indeno[1',2':4,3]naphtho[2,1-b]pyran] the “ΔOD @ saturation” value [1] was 0.23, the ΔOD/MIN sensitivity [1] was 0.41 ΔOD/MIN and the “Bleach T 1/2” value [1] was 38 s. The “(λ) max (VIS)” value [2] was 445 and the “(λ) max (UV)” value [2] was 356.
In the case of `COc1ccc(C2(c3ccccc3F)C=Cc3c(c4c(c5cc(OC)c(OC)cc35)-c3ccccc3C4)O2)cc1` (stereo not shown) [Example 3, 6,7-dimethoxy-2-(2-fluorophenyl)-2-(4-methoxyphenyl)-2,13-dihydro-indeno[1',2':4,3]naphtho[2,1-b]pyran], the “ΔOD @ saturation” value [1] is reported as 1.22, the ΔOD/MIN sensitivity [1] is reported as 0.48 ΔOD/MIN and the “Bleach T 1/2” value [1] is reported as 227 s. The “(λ) max (VIS)” value [2] was 464 and the “(λ) max (UV)” value [2] was 385.
In the case of `COc1ccc2c3c(c4c(c2c1)C=CC(c1ccccc1)(c1ccccc1)O4)Cc1ccccc1-3` [Example 1, 6-methoxy-2,2-diphenyl-2,13-dihydro-indeno[1'2':4,3]naphtho[2,1-b]pyran], the “ΔOD @ saturation” value [1] is reported as 0.38, the ΔOD/MIN sensitivity [1] is reported as 0.52 ΔOD/MIN and the “Bleach T 1/2” value [1] is reported as 42 s. For the same molecule, the “(λ) max (VIS)” value [2] was 437 and the “(λ) max (UV)” value [2] was 366.
In the case of `COc1cc2c3c(c4c(c2cc1OC)-c1ccccc1C4(C)O)OC(c1ccccc1)(c1ccccc1)C=C3` (stereo not shown) [Example 8, 6,7-dimethoxy-2,2-diphenyl-13-hydroxy-13-methyl-2,13-dihydro-indeno[1',2':4,3]naphtho[2,1-b]pyran], the “ΔOD @ saturation” value [1] is reported as 0.25, the ΔOD/MIN sensitivity [1] is reported as 0.41 ΔOD/MIN and the “Bleach T 1/2” value [1] is reported as 35 s. The “(λ) max (VIS)” value [2] was 459 and the “(λ) max (UV)” value [2] was 361.
